In ChEMBL document CHEMBL5512689, “Discovery of Clinical Candidate PF-06648671: A Potent γ-Secretase Modulator for the Treatment of Alzheimer's Disease” (J Med Chem, 2024):
≈ marks a conversion by molar mass, not a printed value. Values belong to the compound of their own block, whether it stands above or below them.

Tests used:
[1] = Drug penetration in rat assessed as Unbound brain-to-plasma concentration ratio; type: ADME, cell-free; settings: read-out: K(p,uu,brain)
[2] = Kinetic solubility of compound at pH 6.5; type: physicochemical; settings: buffer, read-out: Kinetic_solubility
[3] = Apparent permeability across apical to basolateral side in dog RRCK cells; type: ADME, cell-based, Canis lupus familiaris, MDCKII-LE; settings: MDCK
[4] = Volume of distribution at steady state in dog at 1 mg/kg, iv; type: ADME, organism-based, Canis lupus familiaris; settings: in vivo, read-out: Vdss
[5] = Oral bioavailability in rat at 5 mg/kg; type: ADME, organism-based; settings: in vivo
[6] = Oral bioavailability in human at 5 mg/kg; type: ADME, organism-based; settings: in vivo
[7] = Lipophilicity, log D of the compound by shake flask method; type: physicochemical; settings: octanol/water
[8] = Ratio of drug concentration in brain to plasma in rat at 10 mg/kg, po; type: ADME, organism-based; settings: read-out: BPR
[9] = Lipophilicity, log D of the compound; type: physicochemical; settings: octanol/water
[10] = Drug penetration in human assessed as Unbound brain-to-plasma concentration ratio; type: ADME, cell-free; settings: read-out: K(p,uu,brain)
[11] = Volume of distribution at steady state in rat at 1 mg/kg, iv; type: ADME, organism-based; settings: in vivo, read-out: Vdss
[12] = Volume of distribution at steady state in human at 1 mg/kg, iv; type: ADME, organism-based; settings: in vivo, read-out: Vdss
[13] = Oral bioavailability in dog at 5 mg/kg; type: ADME, organism-based, Canis lupus familiaris; settings: in vivo
[14] = Drug penetration in Non human primate assessed as unbound brain-to-plasma concentration ratio; type: ADME, cell-free; settings: primates, read-out: K(p,uu,brain)

SMILES: Cc1cn(-c2ccc3n(c2=O)CCN([C@@H](C)[C@@H]2CC[C@H](c4cc(F)c(C(F)(F)F)c(F)c4)O2)C3=O)cn1
- Kp uu [1]: 0.08

SMILES: Cc1cn(-c2ccc3n(c2=O)CCN([C@@H](C)[C@@H]2CC[C@H](c4cc(F)c(Cl)cc4C(F)(F)F)O2)C3=O)cn1
- solubility kinetic [2]: 44.8 µM (≈ 24.1 µg/mL)
- Papp A→B [3]: 5.8 ×10⁻⁶ cm/s
- Vd [4]: 0.7 L/kg
- bioavailability [5]: 67%
- bioavailability [6]: 60%
- logD [7]: 4.2
- Kp [8]: 1.5
- logD [9]: 5
- Kp uu [1]: 0.7
- Kp uu [10]: 1
- Vd [11]: 0.8 L/kg
- Vd [12]: 1.3 L/kg
- bioavailability [13]: 88%

Further lines, results first:

- Kp uu [1]: 0.5
SMILES: Cc1cn(-c2ccc3n(c2=O)CCN([C@@H](C)[C@@H]2CC[C@H](c4ccc(C(F)(F)F)c(F)c4F)O2)C3=O)cn1

- Kp uu [1]: 0.5
SMILES: Cc1cn(-c2ccc3n(c2=O)CCN([C@@H](C)[C@@H]2CC[C@H](c4ccc(C(F)(F)F)cc4)O2)C3=O)cn1

- Kp uu [14]: 1
- Kp uu [1]: 0.5
SMILES: Cc1cn(-c2ccc3n(c2=O)CCN([C@@H](C)[C@@H]2CC[C@H](c4ccc(Cl)cc4C(F)(F)F)O2)C3=O)cn1
